# Patent US20200281834A1, “COMPOSITION FOR PROMOTING EXPRESSION OF AQUAPORIN 3, AND USE THEREOF” (SUNTORY HOLDINGS LIMITED, priority 2017, published 2020)
# “And” between values parts separate entries of the source, which are not always exact repeats. Identical values can stand only once.
# System: aquaporin 3
# Experiment: Expression level of aquaporin 3 in skin epithelial cells (real-time PCR, corrected for GAPDH)
# Format: cell-based, Human
# Conditions: NHEK, 24 hours
# [1] = 30 μM, control (culture solution) = 1.0
# [2] = 50 μM, control (culture solution) = 1.0
# Description: As a control, 50% ethanol was prepared.
# As a positive control, retinoic acid was prepared.
# Human epidermal keratinocytes (NHEK (AD)) were precultured under conditions of 37° C. and 5% CO2 in a serum-free liquid medium for growing human epidermal keratinocyte (HuMedia-KG2 manufactured by Kurabo Industries, Ltd.) in a 21 cm^2 dish, and cultured until the cells became sub-confluent.
# Next, each test sample was added to the culture solution. Each test sample was added to the culture solution in such a manner that the concentration of the wine in the culture solution was equivalent to 1/400 of the concentration of each original composition (wine).
# After each test sample was added, the cells were cultured under conditions of 37° C. and 5% CO2 for 24 hours.
# Instead of each test sample, 0.125 mL of 50% ethanol as a control was added to 5 mL of the culture solution.
# Instead of each test sample, retinoic acid as a positive control was added to the culture solution in such a manner that the concentration of the retinoic acid in the culture solution was 2 μM.
# After the compositions as the controls were added, the cells were cultured under conditions of 37° C. and 5% CO2 for 24 hours.
# After the culture of skin epithelial cells in “(2) Culture of Skin Epithelial Cells”, RNA was extracted from the cultured cells with ISOGEN (manufactured by Nippon Gene Co., Ltd.).
# From 1 μg of the resulting RNA, cDNA was synthesized with Superscript VILO Master Mix (manufactured by Invitrogen).
# Thereafter, with primers (primers having nucleotide sequences of SEQ ID NOS: 1 and 2) shown in Table 4, real-time PCR was performed to detect expression of aquaporin 3 (Genbank Accession No. NM_004925).
# For PCR, KOD SYBR qPCR Mix (manufactured by Toyobo Co., Ltd.) was used, and the reaction conditions were set such that thermal denaturation was carried out at 98° C. for 10 seconds, annealing was carried out at 60° C. for 10 seconds, and elongation reaction was carried out at 68° C. for 30 seconds.
# The fluorescence intensity in the process of amplification was monitored with a quantitative PCR apparatus StepOnePlus (manufactured by Applied Biosystems) to determine the number of cycles taken until the fluorescence intensity became constant. From the number of cycles for aquaporin 3, the expression level was calculated through a standard method.
# In parallel to detection of the expression level of aquaporin 3 by real-time PCR, the expression level of glyceraldehyde-3-phosphate dehydrogenase (GAPDH) (Genbank Accession No. NM_002046) which is a housekeeping gene was measured with primers (primers having nucleotide sequences of SEQ ID NOS: 3 and 4) shown in Table 4.
# The expression level of aquaporin 3 in the cultured cells was corrected for the expression level of GAPDH, and the expression level relative against the expression level of aquaporin 3 in the control was calculated, where the expression level of aquaporin 3 in the control was defined as 1.0.
# The expression level of aquaporin 3 in skin epithelial cells was measured in the same manner as in “Method for Evaluating Expression Level of Aquaporin 3” except that instead of each test sample, 0.0125 mL of each fraction was added to 5 mL of a culture solution.
# Each compound was dissolved in a human epidermal keratinocyte growing serum-free liquid medium (HuMedia-KG2 manufactured by Kurabo Industries, Ltd.) to prepare a test sample.
# The culture solution was used as a control.
Compound,Relative gene expression level (average) of aquaporin 3 [1],Relative gene expression level (average) of aquaporin 3 [2],"Relative gene expression level (average) of aquaporin 3 (2 μM, control (50% ethanol) = 1.0)","Relative gene expression level (average) of aquaporin 3 (2 μM, control (culture solution) = 1.0, listed as RA)"
"Oc1cc(O)c2c(c1)O[C@H](c1ccc(O)c(O)c1)[C@@H](O)[C@@H]2c1c(O)cc(O)c2c1O[C@H](c1ccc(O)c(O)c1)[C@@H](O)C2 [C-C, Procyanidin B3]",1.19,1.27,,
"Oc1cc(O)c2c(c1)O[C@H](c1ccc(O)c(O)c1)[C@H](O)[C@H]2c1c(O)cc(O)c2c1O[C@H](c1ccc(O)c(O)c1)[C@H](O)[C@H]2c1c(O)cc(O)c2c1O[C@H](c1ccc(O)c(O)c1)[C@H](O)C2 [PC1, procyanidin C1]",1.41,1.34,,
"CC1=C(/C=C/C(C)=C/C=C/C(C)=C/C(=O)O)C(C)(C)CCC1 [Retinoic acid, retinoic acid]",,,1.61,1.32 and 1.36 and 1.21
"Oc1cc(O)c2c(c1)O[C@H](c1ccc(O)c(O)c1)[C@H](O)[C@H]2c1c(O)cc(O)c2c1O[C@H](c1ccc(O)c(O)c1)[C@H](O)C2 [EC-EC, procyanidin B2]",0.98,0.99,,
"O=C(O[C@@H]1Cc2c(O)cc(O)cc2O[C@@H]1c1cc(O)c(O)c(O)c1)c1cc(O)c(O)c(O)c1 [EGCG, epigallocatechin gallate]",1.36,1.47,,
catechin,1.19,1.14,,
"Oc1cc(O)c2c(c1)O[C@H](c1ccc(O)c(O)c1)[C@@H](O)[C@@H]2c1c(O)cc(O)c2c1O[C@H](c1ccc(O)c(O)c1)[C@H](O)C2 [C-EC, procyanidin B4]",1.24,1.12,,
"Oc1cc(O)c2c(c1)O[C@H](c1ccc(O)c(O)c1)[C@H](O)C2 [EC, epicatechin]",1.15,1.21,,
"O=C(O[C@@H]1Cc2c(O)cc(O)cc2O[C@@H]1c1ccc(O)c(O)c1)c1cc(O)c(O)c(O)c1 [ECG, epicatechin gallate]",1.63,1.25,,
(+)-catechin-(+)-catechin-(−)-epicatechin-3-O-gallate [C-C-ECG],2.01,2.50,,
"Oc1cc(O)c2c(c1)O[C@H](c1ccc(O)c(O)c1)[C@H](O)[C@H]2c1c(O)cc(O)c2c1O[C@H](c1ccc(O)c(O)c1)[C@@H](O)C2 [EC-C, Procyanidin B1]",1.14,1.20,,
"O=C(O[C@@H]1Cc2c(O)cc(O)c([C@@H]3c4c(O)cc(O)cc4O[C@H](c4ccc(O)c(O)c4)[C@H]3O)c2O[C@@H]1c1ccc(O)c(O)c1)c1cc(O)c(O)c(O)c1 [C-ECG, (+)-catechin-(−)epicatechin-3-O-gallate]",2.19,2.59,,
